Target: Fasciola hepatica TIM (FhTIM) (Fasciola hepatica, UniProt S4UI50)
Assay: Inhibition of recombinant FhTIM, coupled enzyme assay
Assay type: biochemical
Conditions: Table 1S, screening of 340 compounds in FhTIM; table head prints no unit, µM per b8/b9; read-out: IC50
Description: Expression and purification of proteins: FhTIM, RabbitTIM and HsTIM were expressed in Escherichia coli and purified as described in the literature[31],[37]. […] Before use, extensive dialysis against 100 mM triethanolamine/10 mM EDTA (pH 7.4) was performed. […] Enzymatic activity was determined following the conversion of glyceraldehydes-3-phosphate into dihydroxyacetone phosphate in a coupled enzyme assay. The decrease in absorbance at 340 nm was followed in a multiplate reader VarioskanTM Flash Multimode Reader (Thermo ScientificTM, Waltham, MA, USA) at 38 °C. The reaction mixture (1 mL, pH 7.4) contained 100 mM triethanolamine, 10 mM EDTA, 0.2 mM NADH, 1 mM glyceraldehydes-3-phosphate and 0.9 units of α-glycerol phosphate dehydrogenase. The reaction was initiated by the addition of 5 ng/mL of the TIM of interest. For the inhibition studies, TIM was incubated at a concentration of 5 mg/mL in a buffer containing 100 mM triethanolamine, 10 mM EDTA, pH 7.4 and 10% of DMSO at 37 °C for 1 h. The mixture also contained the compounds, dissolved in DMSO, at the indicated concentrations. After 1 h, 10 µL were withdrawn and added to a final volume of 100 µL of the reaction mixture for the activity assay. The inhibition assay was performed in a 96-well microplate. […] The experiments were performed in triplicate in two independent experiments.

Fasciola hepatica TIM (FhTIM), sequence (S4UI50 entry or part of it): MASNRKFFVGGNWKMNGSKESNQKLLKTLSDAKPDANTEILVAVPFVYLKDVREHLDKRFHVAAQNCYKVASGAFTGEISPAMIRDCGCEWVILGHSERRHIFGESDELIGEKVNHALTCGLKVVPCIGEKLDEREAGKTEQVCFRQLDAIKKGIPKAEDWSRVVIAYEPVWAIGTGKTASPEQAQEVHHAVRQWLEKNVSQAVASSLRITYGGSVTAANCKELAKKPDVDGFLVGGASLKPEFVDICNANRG

| Structure (SMILES) | IC50 [µM] |
| --- | --- |
| C=CCn1c(C(=O)N2CCN(C)CC2)csc1=NN=C/C=C/c1ccco1 [Compound 1093] | > 100 |
| O=C(C=Cc1cccc2ccccc12)c1ccccc1O [Compound 1269] | > 100 |
| C=CCn1c(-c2ccc(OC)cc2)csc1=NN=CC=Cc1ccco1 [Compound 871] | > 100 |
| O=S(=O)(O)c1ccc(C=NN=c2scc(-c3csc(=NN=Cc4ccc(S(=O)(=O)O)o4)n3-c3ccccc3)n2-c2ccccc2)o1 [Compound 781] | > 100 |
| C=CCn1c(C)csc1=NN=Cc1ccc2ccccc2c1 [Compound 904] | > 100 |
| Cc1ccc(-c2cc(C(F)(F)F)nn2-c2ccc(S(N)(=O)=O)cc2)cc1 [Compound 1121] | > 100 |
| C=CCn1c(C(=O)NN2CCN(CC=Cc3ccccc3)CC2)csc1=NN=CC=Cc1ccco1 [Compound 1100] | > 100 |
| O=C(C=Cc1cccs1)C=Cc1cccs1 [Compound 796] | > 100 |
| CCCCNC(=O)NN=Cc1no[n+]([O-])c1C [Compound 175] | > 100 |
| Cc1ncc([N+](=O)[O-])n1CCI [Compound 712] | > 100 |
| O=C1CSC(=NN=C/C=C/C=C/c2cccs2)N1c1ccccc1 [Compound 313] | > 100 |
| NC1=NS(=O)(=O)N=C(N)C1N [Compound 723] | > 100 |
| C=CCn1c(-c2csc(=NN=Cc3cccs3)n2CC=C)csc1=NN=Cc1cccs1 [Compound 288] | > 100 |
| C=CCNC(=S)NN=Cc1ccc(O)cc1 [Compound 291] | > 100 |
| C(=Cc1ccco1)C=NN=c1scc(-c2ccccc2)n1-c1ccccc1 [Compound 1132] | > 100 |
| S=C(NN=Cc1cccs1)Nc1ccccc1 [Compound 279] | > 100 |
| Cc1nnc[n+]([O-])c1C=Cc1ccc(N(C)C)cc1 [Compound 641] | > 100 |
| N#Cc1c2ccccc2[n+]([O-])n1C/C=C/c1ccccc1 [Compound 500] | > 100 |
| O=c1cc(O)n(Cc2ccccc2)c(=S)n1Cc1ccccc1 [Compound 1088] | > 100 |
| CSc1ccc(C=CC(=O)c2ccc([N+](=O)[O-])cc2)cc1 [Compound 1155] | > 100 |
| O=C1CSC(=NN=Cc2ccc([N+](=O)[O-])s2)N1 [Compound 258] | > 100 |
| Cc1csc(=NN=Cc2cccs2)n1-c1ccccc1 [Compound 1103] | > 100 |
| NC(=NO)c1ccc(Br)cc1 [Compound 1105] | > 100 |
| C=CCNC(=S)NN=CC=Cc1ccc(C)o1 [Compound 263] | > 100 |
| C=CCn1c(C(=O)N2CCN(Cc3ccccc3)CC2)csc1=NN=CC=Cc1ccco1 [Compound 1117] | > 100 |
| CN(CC=Cc1ccccc1)Cc1ccc2c(c1)=[N+]([O-])C(C)(C)[N+]=2[O-] [Compound 499] | > 100 |
| C=CCNC(=S)NN=Cc1ccc(SC)cc1 [Compound 281] | > 100 |

| Structure (SMILES) | IC50 [µM] |
| --- | --- |
| [O-][n+]1onc(-c2ccccc2)c1CNc1cccc2ccccc12 [Compound 169] | > 100 |
| O=C1C(=Cc2ccc([N+](=O)[O-])s2)C(=O)N(C2CCCCC2)S(=O)(=O)N1C1CCCCC1 [Compound 113] | > 100 |
| O=S(=O)(NCCc1ccccc1)NCCc1ccccc1 [Compound 120] | > 100 |
| O=C(C=CC=Cc1ccccc1)C=CC=Cc1ccccc1 [Compound 797] | > 100 |
| C=CCN1C(=O)CSC1=NN=CC=CC=Cc1cccs1 [Compound 312] | > 100 |
| CC(=O)Nc1ccc(C=C2CN(C)CC(=Cc3ccc(NC(C)=O)cc3)C2=O)cc1 [Compound 1281] | > 100 |
| O=C(O)c1csc(=NN=CC=CC=Cc2cccs2)n1-c1ccccc1 [Compound 1136] | > 100 |
| Nc1nc(-c2ccc([N+](=O)[O-])cc2)cs1 [Compound 1098] | > 100 |
| C=CCn1c(-c2ccccc2)csc1=NN=Cc1cccs1 [Compound 272] | > 100 |
| [O-][n+]1onc2ccc(C=NNC(=S)Nc3ccccc3)cc21 [Compound 41] | > 100 |
| C=CCn1c(C(=O)N2CCN(CC=Cc3ccccc3)CC2)csc1=NN=CC=Cc1ccco1 [Compound 314] | > 100 |
| CC(=O)Nc1ccc(C#N)cc1 [Compound 1104] | > 100 |
| NS(=O)(=O)NCc1ccccc1 [Compound 124] | > 100 |
| C=CCn1c(C(=O)CNN2CCN(C/C=C/c3ccccc3)CC2)csc1=NN=C/C=C/c1ccco1 [Compound 1115] | > 100 |
| COc1ccc(C=O)cc1-c1cc(C=O)ccc1OC [Compound 237] | > 100 |
| [O-][n+]1onc(-c2ccccc2)c1CN1CCOCC1 [Compound 352] | > 100 |
| S=C(NN=Cc1ccccc1)Nc1ccccc1 [Compound 278] | > 100 |
| C=CCNC(=S)NN=Cc1ccsc1 [Compound 911] | > 100 |
| C=CCn1c(-c2ccc([N+](=O)[O-])cc2)csc1=NN=C/C=C/c1cccs1 [Compound 907] | > 100 |
| C(=Cc1ccco1)C=NN=CC=Cc1ccco1 [Compound 1140] | > 100 |
| CC(=O)Nc1ccc(C=NO)cc1 [Compound 1106] | > 100 |
| C=CCn1c(-c2csc(=NN=Cc3ccccc3)n2-c2ccccc2)csc1=NN=Cc1ccc2ccccc2c1 [Compound 783] | > 100 |
| C=CCN1C(=O)CSC1=NN=CC=Cc1ccco1 [Compound 264] | > 100 |
| C=CCn1c(C)csc1=NN=Cc1ccco1 [Compound 1110] | > 100 |
| O=C1C(=CC=Cc2cccs2)CCC1=CC=Cc1cccs1 [Compound 1018] | > 100 |
| C=CCNC(=S)NN=Cc1ccc(C)o1 [Compound 788] | > 100 |
| Cc1ccc(C=CC=CC(C=CC=Cc2ccc(C)o2)=NN2CCN(CC=Cc3ccccc3)CC2)o1 [Compound 1102] | > 100 |

Next, values leading:

| IC50 [µM] | Structure (SMILES) |
| --- | --- |
| > 100 | C=CCn1c(-c2ccccc2)csc1=NN=Cc1ccc(S(=O)(=O)O)o1 [Compound 876] |
| > 100 | Cc1c(CNc2cccc3ccccc23)no[n+]1[O-] [Compound 172] |
| > 100 | O=C1C(=CC=Cc2ccccc2)CCCC1=CC=Cc1ccccc1 [Compound 800] |
| > 100 | C=CCNC(=S)NN=C(C)c1cc2ccccc2o1 [Compound 787] |
| 100 | CCOC(=O)c1nc2ccc([N+](=O)[O-])cc2n1OC(=O)OCC(C)C [Compound 545] |
| > 100 | C=CCn1c(-c2ccc(Cl)cc2)csc1=NN=CC=Cc1ccco1 [Compound 266] |
| > 100 | O=C(NN=Cc1ccccc1O)c1ccccc1Cl [Compound 1250] |
| > 100 | C=CCN(C(C)=O)C1=NNC(c2ccc([N+](=O)[O-])s2)S1 (centres unmarked) [Compound 287] |
| > 100 | Cc1csc(=NN=CC=Cc2ccco2)n1-c1ccccc1 [Compound 1131] |
| > 100 | C=CCNC(=S)NN=CC=Cc1ccc([N+](=O)[O-])s1 [Compound 142] |
| > 100 | O=C(C=Cc1cccc2ccccc12)c1ccccc1 [Compound 1266] |
| > 100 | C=CCN1C(=O)CSC1=NN=C(C)[C@H]1CC[C@H]2[C@@H]3CC=C4CC(O)CC[C@]4(C)[C@H]3CC[C@]12C (some centres unmarked) [Compound 1125] |
| 100 | O=[N+]([O-])c1ccc2c(c1)c(OCc1ccccc1)nn2CCCCCBr [Compound 518] |
| > 100 | COC(=O)NN=Cc1no[n+]([O-])c1C [Compound 174] |
| > 100 | O=C1CC(=O)N(CCc2ccccc2)S(=O)(=O)N1CCc1ccccc1 [Compound 127] |
| > 100 | C=CCn1c(C)csc1=NN=Cc1ccc(S(=O)(=O)O)o1 [Compound 1130] |

| IC50 [µM] | Structure (SMILES) |
| --- | --- |
| > 100 | C=CCn1c(-c2ccc(Br)cc2)csc1=NN=C(C)C1CCC2C3CC=C4CC(O)CCC4(C)C3CCC12C (centres unmarked) [Compound 1272] |
| > 100 | Cc1nnc[n+]([O-])c1CC(c1ccc([N+](=O)[O-])cc1)N1CCOCC1 (centres unmarked) [Compound 360] |
| > 100 | O=C1CCCC2=C1C(c1cccc(Br)c1)c1ccc3ccccc3c1N2 (centres unmarked) [Compound 699] |
| > 100 | CCOC(=O)C=Cc1ccc([N+](=O)[O-])o1 [Compound 66] |
| > 100 | CC12CCC(O)CC1=CCC1C2CCC2(C)C(C(=O)C=Cc3ccccc3Cl)CCC12 (centres unmarked) [Compound 1259] |
| > 100 | C=CCN1C(=O)CSC1=NN=Cc1ccc(Cl)cc1 [Compound 260] |
| > 100 | C=CCn1c(-c2ccc(Cl)cc2)csc1=NN=Cc1ccc([N+](=O)[O-])s1 [Compound 145] |
| > 100 | Cc1c(C(=O)NN=Cc2ccccc2)no[n+]1[O-] [Compound 824] |
| > 100 | CCN(CC)CCCNS(=O)(=O)NCCCN(CC)CC [Compound 125] |
| 50 to 100 | Cc1c(CNc2ccc3ccccc3c2)no[n+]1[O-] [Compound 173] |
| 50 to 100 | C=CCNC(=S)NN=Cc1ccnc2ccccc12 [Compound 308] |
| 100 | O=C1C(=Cc2ccccc2)CCCC1=Cc1ccccc1 [Compound 799] |
| 50 to 100 | O=C1C(=Cc2ccccc2)CCC1=Cc1ccccc1 [Compound 1247] |
| 50 to 100 | Brc1ccc(-c2c[se]c(=NN=CC=Cc3ccccc3)n2CCN2CCOCC2)cc1 [Compound 1222] |
| 50 to 100 | CC1(C)[N+]([O-])=c2ccc(Cl)cc2=[N+]1[O-] [Compound 532] |

Same assay, conditions: recombinant FhTIM, 1 h incubation with compound at 37 °C; read-out: IC50

| IC50 [µM] | Structure (SMILES) |
| --- | --- |
| 50 ± 9 | CN(C)CCCNS(=O)(=O)NCCCN(C)C [Compound 121] |

Reference: PMC7018972, “Novel and selective inactivators of Triosephosphate isomerase with anti-trematode activity” (Scientific Reports, 2020)
